Key:
PPT1 = molecular target: T1, PPT1 (Mus musculus, UniProt O88531); experiment: microscale thermophoresis; type: binding
T1 sequence (O88531 28-306): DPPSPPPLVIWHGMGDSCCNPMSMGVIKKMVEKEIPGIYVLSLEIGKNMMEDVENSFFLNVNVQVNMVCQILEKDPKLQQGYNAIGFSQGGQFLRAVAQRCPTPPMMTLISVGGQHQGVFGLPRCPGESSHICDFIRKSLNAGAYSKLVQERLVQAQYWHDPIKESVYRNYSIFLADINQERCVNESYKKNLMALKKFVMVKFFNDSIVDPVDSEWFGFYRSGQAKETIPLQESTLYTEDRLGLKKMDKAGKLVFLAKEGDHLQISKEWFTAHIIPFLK

PPT1 (endogenous, BMDMs) = molecular target: T2, PPT1 (endogenous, BMDMs) (Mus musculus, UniProt O88531); experiment: cellular thermal shift assay, immunoblot; type: cell-based; conditions: intact BMDMs, 37-62 °C, 3 min
T2 sequence (O88531 28-306): T1 sequence (O88531 28-306)

Kd (PPT1): 863 µM
SMILES: O=C(O)C(=O)Cc1ccccc1 [phenylpyruvate]
thermal shift (PPT1 (endogenous, BMDMs)): phenylpyruvate treatment significantly changed PPT1 protein stability after heating

Reference: PMC10439185 (Cell Reports Medicine, 2023)
